Test results from publication PMC3985611 (Chemistry & biology, 2013).

Target: Hsp70 (Homo sapiens, UniProt P0DMV8)
Test: competition of YK5-biotin pull-down in cancer cells
Type: cell-based

Hsp70, sequence (P0DMV8 2-641): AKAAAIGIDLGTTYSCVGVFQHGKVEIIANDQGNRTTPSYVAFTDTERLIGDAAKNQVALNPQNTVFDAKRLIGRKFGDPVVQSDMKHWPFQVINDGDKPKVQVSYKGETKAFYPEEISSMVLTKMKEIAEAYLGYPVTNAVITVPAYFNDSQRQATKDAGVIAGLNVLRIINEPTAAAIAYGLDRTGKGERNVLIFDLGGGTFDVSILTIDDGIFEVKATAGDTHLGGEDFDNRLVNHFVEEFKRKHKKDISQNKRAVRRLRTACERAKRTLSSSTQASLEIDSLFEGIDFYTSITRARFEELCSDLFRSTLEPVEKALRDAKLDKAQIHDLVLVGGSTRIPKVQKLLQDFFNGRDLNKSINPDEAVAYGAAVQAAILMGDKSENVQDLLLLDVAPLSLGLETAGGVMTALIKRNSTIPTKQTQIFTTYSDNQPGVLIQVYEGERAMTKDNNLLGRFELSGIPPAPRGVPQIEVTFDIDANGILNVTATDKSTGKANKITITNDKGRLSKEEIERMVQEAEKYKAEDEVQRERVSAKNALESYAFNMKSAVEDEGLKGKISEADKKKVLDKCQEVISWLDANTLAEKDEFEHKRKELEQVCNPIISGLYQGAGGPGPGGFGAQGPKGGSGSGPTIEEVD

In the case of `C=CC(=O)Nc1cc(N)nc(Sc2c(OC)nc(N3CCN(C)CC3)nc2OC)n1` [YK5], the IC50 is reported as roughly 7 µM.
